In the SangsterLogP compilation:

Columns and labels:
[1] = method code SF, from DOI: 10.1007/bf01990207, PMID: 819289; settings: pH 7.4
[2] = method code SF-AS, from DOI: 10.1007/bf01990207, PMID: 819289; settings: pH 7.4

Work on CCCNC(=O)CNC(=O)C=[N+]=[N-] yielded a logD [1] of -0.24.
CNC(=O)CNC(=O)C=[N+]=[N-] gave a logD [1] of -0.87.
For CC(C)NC(=O)CNC(=O)C=[N+]=[N-], the logD [1] was -0.41.
Work on [N-]=[N+]=CC(=O)NCC(=O)NCCO yielded a logD [1] of -1.35.
[N-]=[N+]=CC(=O)NCC(N)=O showed a logD [1] of -1.26.
In the case of CCOC(=O)CNC(=O)C=[N+]=[N-], the logD [1] is reported as -0.08.
CCNC(=O)CNC(=O)C=[N+]=[N-] gave a logD [1] of -0.62.
In the case of CC(C)CNC(=O)CNC(=O)C=[N+]=[N-], the logD [1] is reported as 0.37.
CCCCCCNC(=O)CNC(=O)C=[N+]=[N-] showed a logD [2] of 1.51.
With [N-]=[N+]=CC(=O)NCC(=O)NN the logD [1] was -0.76.
